The values below come from patent US20260125382A1, “COMPOUNDS FOR INHIBITING OR DEGRADING CDK2 AND/OR CDK9 AND MEDICINAL USE THEREOF” (KOREA RESEARCH INSTITUTE OF CHEMICAL TECHNOLOGY, priority 2022, published 2026).

The target of assay [1] is T1, CDK2 (Homo sapiens, UniProt P24941).
T1 construct: endogenous in cells; host or cells: MDA-MB-231
Description: CDK protein degradation activity (Western blotting), CDK2. Format: cell-based. As to conditions: MDA-MB-231 cells, 16 hours, Western blot. An outline of the steps:
(§1)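 MDA-MB-231 cells were treated with compound at final concentrations of 100 nM, 1 μM and 10 μM, or DMSO vehicle, for 16 h. Lysates were resolved by SDS-PAGE and immunoblotted for CDK2, CDK9 and tubulin, with band intensities quantified densitometrically.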
On the technique in general: A western blot detects proteins with antibodies after separation by electrophoresis.

The target in assay [2] is T2, CDK9 (Homo sapiens, UniProt P50750).
T2 construct: endogenous in cells; host or cells: MDA-MB-231
T2 sequence (P50750 whole entry): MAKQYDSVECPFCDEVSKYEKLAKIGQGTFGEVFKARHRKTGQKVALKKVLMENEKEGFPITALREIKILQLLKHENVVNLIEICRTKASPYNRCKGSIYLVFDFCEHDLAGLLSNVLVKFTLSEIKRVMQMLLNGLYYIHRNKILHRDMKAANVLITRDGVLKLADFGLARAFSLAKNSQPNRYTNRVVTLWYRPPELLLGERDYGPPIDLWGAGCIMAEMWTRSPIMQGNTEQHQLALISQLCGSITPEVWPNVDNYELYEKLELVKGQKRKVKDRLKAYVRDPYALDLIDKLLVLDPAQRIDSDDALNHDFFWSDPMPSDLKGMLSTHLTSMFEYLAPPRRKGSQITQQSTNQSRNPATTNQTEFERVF
Description: CDK protein degradation activity (Western blotting), CDK9. The class given is cell-based. As to conditions: MDA-MB-231 cells, 16 hours, Western blot. An outline of the steps:
as §1

SMILES strings stand for the structures.

Consider `Cc1cccc(C(=O)NC2CC(n3cnc4c(Nc5ccc(N6CCN(CC7CCN(C(=O)C8CCN(c9ccc%10c(c9)C(=O)N([C@H]9CCC(=O)NC9=O)C%10=O)CC8)CC7)CC6)cc5)ncnc43)C2)n1` (stereo partly drawn) [Compound 379, N-((1s,3s)-3-(6-((4-(4-((1-(1-(2-(2,6-dioxopiperidin-3-yl)-1,3-dioxoisoindolin-5-yl)piperidin-4-carbonyl)piperidin-4-yl)methyl)piperazin-1-yl)phenyl)amino)-9H-purin-9-yl)cyclobutyl)-6-methylpicolinamide], for which, in assay [1], the “Enzyme degradation CDK2 (% remaining) @ 0.1 μM” value was 40/40/40%, the “Enzyme degradation CDK2 (% remaining) @ 1 μM” value is 40/40/40% and the “Enzyme degradation CDK2 (% remaining) @ 10 μM” value is on record as 40/40/40%. Further, in assay [2], the “Enzyme degradation CDK9 (% remaining) @ 0.1 μM” value is 0/0/0%, the “Enzyme degradation CDK9 (% remaining) @ 1 μM” value is reported as 0/0/0% and the “Enzyme degradation CDK9 (% remaining) @ 10 μM” value is listed as 0/0/0%.
Take `Cc1cccc(C(=O)NC2CC(n3cnc4c(Nc5ccc(N6CCN(CCC7CCN(c8ccc9c(c8)C(=O)N([C@H]8CCC(=O)NC8=O)C9=O)CC7)CC6)cc5)ncnc43)C2)n1` (stereo partly drawn) [Compound 380, N-((1s,3s)-3-(6-((4-(4-(2-(1-(2-(2,6-dioxopiperidin-3-yl)-1,3-dioxoisoindolin-5-yl)piperidin-4-yl)ethyl)piperazin-1-yl)phenyl)amino)-9H-purin-9-yl)cyclobutyl)-6-methylpicolinamide]: in assay [1], the “Enzyme degradation CDK2 (% remaining) @ 0.1 μM” value turned out to be 40%, the “Enzyme degradation CDK2 (% remaining) @ 1 μM” value came out at 40% and the “Enzyme degradation CDK2 (% remaining) @ 10 μM” value was 30%. In assay [2], the “Enzyme degradation CDK9 (% remaining) @ 0.1 μM” value is listed as 0/0/0%, the “Enzyme degradation CDK9 (% remaining) @ 1 μM” value is listed as 0/0/0% and the “Enzyme degradation CDK9 (% remaining) @ 10 μM” value is reported as 0/0/0%.
As for `Cc1cccc(C(=O)NC2CC(n3cnc4c(Nc5ccc(N6CCN(CCC7CCN(c8cc9c(cc8F)C(=O)N([C@H]8CCC(=O)NC8=O)C9=O)CC7)CC6)cc5)ncnc43)C2)n1` (stereo partly drawn) [Compound 381, N-((1s,3s)-3-(6-((4-(4-(2-(1-(2-(2,6-dioxopiperidin-3-yl)-6-fluoro-1,3-dioxoisoindolin-5-yl)piperidin-4-yl)ethyl)piperazin-1-yl)phenyl)amino)-9H-purin-9-yl)cyclobutyl)-6-methylpicolinamide], in assay [1], the “Enzyme degradation CDK2 (% remaining) @ 0.1 μM” value amounted to 30%, the “Enzyme degradation CDK2 (% remaining) @ 1 μM” value was found to be 20% and the “Enzyme degradation CDK2 (% remaining) @ 10 μM” value is on record as 20%. In assay [2], the “Enzyme degradation CDK9 (% remaining) @ 0.1 μM” value is 0/0/0%, the “Enzyme degradation CDK9 (% remaining) @ 1 μM” value is 0/0/0% and the “Enzyme degradation CDK9 (% remaining) @ 10 μM” value is listed as 0/0/0%.
With `Cc1cccc(C(=O)N[C@H]2C[C@@H](n3cnc4c(Nc5ccc(N6CCN(CCC7CCN(c8ccc9nnn([C@H]%10CCC(=O)NC%10=O)c(=O)c9c8)CC7)CC6)cc5)ncnc43)C2)n1` [Compound 382, N-((1s,3s)-3-(6-((4-(4-(2-(1-(3-(2,6-dioxopiperidin-3-yl)-4-oxo-3,4-dihydrobenzo[d][1,2,3]triazin-6-yl)piperidin-4-yl)ethyl)piperazin-1-yl)phenyl)amino)-9H-purin-9-yl)cyclobutyl)-6-methylpicolinamide], in assay [1], the “Enzyme degradation CDK2 (% remaining) @ 0.1 μM” value is 30%, the “Enzyme degradation CDK2 (% remaining) @ 1 μM” value is reported as 30% and the “Enzyme degradation CDK2 (% remaining) @ 10 μM” value is 50%. Also, in assay [2], the “Enzyme degradation CDK9 (% remaining) @ 0.1 μM” value was 0/0/0%, the “Enzyme degradation CDK9 (% remaining) @ 1 μM” value is 0/0/0% and the “Enzyme degradation CDK9 (% remaining) @ 10 μM” value was 0/0/0%.
Regarding `O=C1CC[C@H](N2C(=O)c3ccc(N4CC(C(=O)N5CCC6(CC5)CC(N5CCN(c7ccc(Nc8ncnc9c8ncn9C8CC(NC(=O)c9c(Cl)cccc9Cl)C8)cc7)CC5)C6)C4)cc3C2=O)C(=O)N1` (stereo partly drawn) [Compound 383, 2,6-dichloro-N-((1s,3s)-3-(6-((4-(4-(7-(1-(2-(2,6-dioxopiperidin-3-yl)-1,3-dioxoisoindolin-5-yl)azetidin-3-carbonyl)-7-azaspiro[3.5]nonan-2-yl)piperazin-1-yl)phenyl)amino)-9H-purin-9-yl)cyclobutyl)benzamide], in assay [1], the “Enzyme degradation CDK2 (% remaining) @ 0.1 μM” value is listed as 40/40/40%, the “Enzyme degradation CDK2 (% remaining) @ 1 μM” value is 40/40/40% and the “Enzyme degradation CDK2 (% remaining) @ 10 μM” value was 40/40/40%. In assay [2], the “Enzyme degradation CDK9 (% remaining) @ 0.1 μM” value is given as 0/0/0%, the “Enzyme degradation CDK9 (% remaining) @ 1 μM” value is 0/0/0% and the “Enzyme degradation CDK9 (% remaining) @ 10 μM” value was 0/0/0%.
`Cc1cccc(C(=O)NC2CC(n3cnc4c(Nc5ccc(N6CCN(C7CC8(CCN(c9ccc%10c(c9)C(=O)N([C@H]9CCC(=O)NC9=O)C%10=O)CC8)C7)CC6)cc5)ncnc43)C2)n1` (stereo partly drawn) [Compound 384, N-((1s,3s)-3-(6-((4-(4-(7-(2-(2,6-dioxopiperidin-3-yl)-1,3-dioxoisoindolin-5-yl)-7-azaspiro[3.5]nonan-2-yl)piperazin-1-yl)phenyl)amino)-9H-purin-9-yl)cyclobutyl)-6-methylpicolinamide]: in assay [1], the “Enzyme degradation CDK2 (% remaining) @ 0.1 μM” value is given as 20/20/20%, the “Enzyme degradation CDK2 (% remaining) @ 1 μM” value is 20/20/20% and the “Enzyme degradation CDK2 (% remaining) @ 10 μM” value is 20/20/20%. In assay [2], the “Enzyme degradation CDK9 (% remaining) @ 0.1 μM” value was 0/0/0%, the “Enzyme degradation CDK9 (% remaining) @ 1 μM” value was 0/0/0% and the “Enzyme degradation CDK9 (% remaining) @ 10 μM” value was 0/0/0%.
With `Cc1cccc(C(=O)N[C@H]2C[C@@H](n3cnc4c(Nc5ccc(N6CCN(C7CC8(CCN(c9cc%10c(cc9F)C(=O)N([C@H]9CCC(=O)NC9=O)C%10=O)CC8)C7)CC6)cc5)ncnc43)C2)n1` [Compound 385, N-((1s,3s)-3-(6-((4-(4-(7-(2-(2,6-dioxopiperidin-3-yl)-6-fluoro-1,3-dioxoisoindolin-5-yl)-7-azaspiro[3.5]nonan-2-yl)piperazin-1-yl)phenyl)amino)-9H-purin-9-yl)cyclobutyl)-6-methylpicolinamide], in assay [1], the “Enzyme degradation CDK2 (% remaining) @ 0.1 μM” value was 40%, the “Enzyme degradation CDK2 (% remaining) @ 1 μM” value is 30% and the “Enzyme degradation CDK2 (% remaining) @ 10 μM” value amounted to 30%. Further, in assay [2], the “Enzyme degradation CDK9 (% remaining) @ 0.1 μM” value was 0/0/0%, the “Enzyme degradation CDK9 (% remaining) @ 1 μM” value is 0/0/0% and the “Enzyme degradation CDK9 (% remaining) @ 10 μM” value is listed as 0/0/0%.
As to `Cc1cccc(C(=O)N[C@H]2C[C@@H](n3cnc4c(Nc5ccc(N6CCN(C7CC8(CCN(c9ccc%10nnn([C@H]%11CCC(=O)NC%11=O)c(=O)c%10c9)CC8)C7)CC6)cc5)ncnc43)C2)n1` [Compound 386, N-((1s,3s)-3-(6-((4-(4-(7-(3-(2,6-dioxopiperidin-3-yl)-4-oxo-3,4-dihydrobenzo[d][1,2,3]triazin-6-yl)-7-azaspiro[3.5]nonan-2-yl)piperazin-1-yl)phenyl)amino)-9H-purin-9-yl)cyclobutyl)-6-methylpicolinamide], in assay [1], the “Enzyme degradation CDK2 (% remaining) @ 0.1 μM” value is on record as 20%, the “Enzyme degradation CDK2 (% remaining) @ 1 μM” value was 10% and the “Enzyme degradation CDK2 (% remaining) @ 10 μM” value was found to be 10%. For the same compound, in assay [2], the “Enzyme degradation CDK9 (% remaining) @ 0.1 μM” value is recorded as 0/0/0%, the “Enzyme degradation CDK9 (% remaining) @ 1 μM” value was 0/0/0% and the “Enzyme degradation CDK9 (% remaining) @ 10 μM” value was 0/0/0%.
Regarding `Cc1cccc(C(=O)N[C@H]2C[C@@H](n3cnc4c(Nc5ccc(N6CCN(C7CC8(CCN(C(=O)C9CN(c%10ccc%11c(c%10)C(=O)N(C%10CCC(=O)NC%10=O)C%11=O)C9)CC8)C7)CC6)cc5)ncnc43)C2)n1` (stereo partly drawn) [Compound 387, N-((1s,3s)-3-(6-((4-(4-(7-(1-(2-(2,6-dioxopiperidin-3-yl)-1,3-dioxoisoindolin-5-yl)azetidin-3-carbonyl)-7-azaspiro[3.5]nonan-2-yl)piperazin-1-yl)phenyl)amino)-9H-purin-9-yl)cyclobutyl)-6-methylpicolinamide], in assay [1], the “Enzyme degradation CDK2 (% remaining) @ 0.1 μM” value is recorded as 50%, the “Enzyme degradation CDK2 (% remaining) @ 1 μM” value is given as 40% and the “Enzyme degradation CDK2 (% remaining) @ 10 μM” value is 40%. Moreover, in assay [2], the “Enzyme degradation CDK9 (% remaining) @ 0.1 μM” value was 20%, the “Enzyme degradation CDK9 (% remaining) @ 1 μM” value is given as 0% and the “Enzyme degradation CDK9 (% remaining) @ 10 μM” value is given as 0%.
As to `Cc1cccc(C(=O)NC2CC(n3cnc4c(Nc5ccc(N6CCN(CCC7CCN(C(=O)C8CN(c9ccc%10c(c9)C(=O)N([C@H]9CCC(=O)NC9=O)C%10=O)C8)CC7)CC6)cc5)ncnc43)C2)n1` (stereo partly drawn) [Compound 388, N-((1s,3s)-3-(6-((4-(4-(2-(1-(1-(2-(2,6-dioxopiperidin-3-yl)-1,3-dioxoisoindolin-5-yl)azetidin-3-carbonyl)piperidin-4-yl)ethyl)piperazin-1-yl)phenyl)amino)-9H-purin-9-yl)cyclobutyl)-6-methylpicolinamide], in assay [1], the “Enzyme degradation CDK2 (% remaining) @ 0.1 μM” value is reported as 40/40/40%, the “Enzyme degradation CDK2 (% remaining) @ 1 μM” value was 40/40/40% and the “Enzyme degradation CDK2 (% remaining) @ 10 μM” value is given as 40/40/40%. In addition, in assay [2], the “Enzyme degradation CDK9 (% remaining) @ 0.1 μM” value is reported as 0/0/0%, the “Enzyme degradation CDK9 (% remaining) @ 1 μM” value is recorded as 0/0/0% and the “Enzyme degradation CDK9 (% remaining) @ 10 μM” value was 0/0/0%.
Take `Cc1cccc(C(=O)N[C@H]2C[C@@H](n3cnc4c(Nc5ccc(N6CCN(CCC7CCN(C(=O)C8CCN(c9ccc%10c(c9)C(=O)N([C@H]9CCC(=O)NC9=O)C%10=O)CC8)CC7)CC6)cc5)ncnc43)C2)n1` [Compound 389, N-((1s,3s)-3-(6-((4-(4-(2-(1-(1-(2-(2,6-dioxopiperidin-3-yl)-1,3-dioxoisoindolin-5-yl)piperidin-4-carbonyl)piperidin-4-yl)ethyl)piperazin-1-yl)phenyl)amino)-9H-purin-9-yl)cyclobutyl)-6-methylpicolinamide]: in assay [1], the “Enzyme degradation CDK2 (% remaining) @ 0.1 μM” value is 40%, the “Enzyme degradation CDK2 (% remaining) @ 1 μM” value was found to be 30% and the “Enzyme degradation CDK2 (% remaining) @ 10 μM” value is reported as 30%. Moreover, in assay [2], the “Enzyme degradation CDK9 (% remaining) @ 0.1 μM” value was 0/0/0%, the “Enzyme degradation CDK9 (% remaining) @ 1 μM” value was 0/0/0% and the “Enzyme degradation CDK9 (% remaining) @ 10 μM” value is reported as 0/0/0%.
